Laboratory results as given in patent publication US12448425B2, “Therapeutic peptides” (Board of Regents, The University of Texas System, priority 2019, dated 2025).

Experiments:
[1] = test system: EphB4 and Crk1; test: Phosphorylation of EphB4 and Crk1 in A2780cp20 cells (IP/immunoblot); type: cell-based, human
Experimental: FIGS. 2A-C: BIDEN-AP acts as an EphB4 agonist. (FIG. 2A) BIDEN-AP induced phosphorylation of EphB4 and the associated […] (Crk1). After 16 h serum starvation, A2780cp20 cells were incubated with EFNB2-Fc (20 nM), TNYL-RAW (SEQ ID NO: 12) (50 μM), or BIDEN-AP (50 μM) for 30 min or 2 h. The uncropped blots were available at Supplemental FIG. 11. (FIG. 2B) BIDEN-AP inhibited A2780cp20 cell invasion compared to untreated control (CTL). A modified Boyden transwell chamber coated with human defined matrigel was used. Experiments were performed in triplicate. Data are presented as mean±SD. ***p<0.001. (FIG. 2C) Alexa647-BIDEN-AP was internalized via receptor-mediated endocytosis. A2780cp20 cells were incubated at 37° C. with Alexa647-BIDEN-AP (0.05 μM), Alexa647-TNYL-RAW (SEQ ID NO: 12) (0.05 μM), or Alexa647-BIDEN-AP (0.05 μM) plus unlabeled TNYL-RAW (SEQ ID NO: 12) (5 μM, blocking). Alexa647-BIDEN-AP but not Alexa647-TNYL-RAW (SEQ ID NO: 12) was internalized into the A2780cp20 cells.
Total protein lysates were harvested and subjected to Nupage-SDS separation followed by immunoblotting. […] CTL, untreated control. The uncropped blots were available at Supplemental FIG. 11.
Immunoblotting, immunoprecipitation, and co-immunoprecipitation. […] The protein concentrations were determined by using a BCA Protein Assay Reagent kit (Pierce Biotechnology, Rockford, IL). […]

[2] = Particle size by transmission electron microscopy; type: physicochemical
Experimental: CCPM-BIDEN-AP conjugation. CCPM with amine functionalized surface was synthesized according to reported procedures (Koolpe et al., 2005). To introduce a maleimide group to the CCPM, an aliquot of N-(γ-maleimidobutyryloxy)-succinimide ester) (GMBS) in DMF ([…], 0.16 mmol) was added into the CCPM ([…], 2.6 nmol nanoparticles) in 1.2 mL of phosphate-buffered saline solution (PBS, pH 8). The mixture was stirred for 3 h at 37° C. The product was purified using a PD-10 column to remove unreacted GMBS. To introduce a sulfhydryl group to BIDEN-AP, the amino acid cysteine was conjugated to the N-terminal amine of BIDEN-AP. The resulting sulfhydryl-containing Cys-BIDEN-AP was mixed with 2 mL of a solution of CCPM-maleimide (0.16 mmol equivalent maleimide) in PBS with a 2:1 molar ratio of Cys-BIDEN-AP to maleimide groups (CCPM). […] The unreacted Cys-BIDEN-AP was quantified on an Agilent 1100 Series LC/MSD-TOF instrument equipped with a Vydac C18 column. The molar ratio of BIDEN-AP to CCPM was calculated on the basis of Cys-BIDEN-AP consumed (total Cys-BIDEN-AP minus remaining Cys-BIDEN-AP). The size of CCPM-BIDEN-AP was determined by transmission electron microscopy (TEM). […]

Substance: CCPM-BIDEN-AP: nano-conjugate of Cys-BIDEN-AP on core-crosslinked polymeric micelles via maleimide (GMBS) (CTNYLFSPNGPIARAW; D-residues)
- phosphorylation of EphB4 and Crk1 in vitro [1]: induce EphB4 and Crk1 phosphorylation
- mean diameter (TEM) [2]: 24±3 nm
